Measurements reported in patent publication US20250263390A1, “NOVEL SUBSTITUTED 6,7-DIHYDRO-5H-BENZO[7]ANNULENE COMPOUNDS AND THEIR DERIVATIVES, PROCESSES FOR THEIR PREPARATION AND THERAPEUTIC USES THEREOF” (SANOFI, priority 2022, published 2025).

Biological target: T1, ERα (Homo sapiens, UniProt P03372)
T1 construct: host or cells: MCF7
T1 sequence (P03372 1-595): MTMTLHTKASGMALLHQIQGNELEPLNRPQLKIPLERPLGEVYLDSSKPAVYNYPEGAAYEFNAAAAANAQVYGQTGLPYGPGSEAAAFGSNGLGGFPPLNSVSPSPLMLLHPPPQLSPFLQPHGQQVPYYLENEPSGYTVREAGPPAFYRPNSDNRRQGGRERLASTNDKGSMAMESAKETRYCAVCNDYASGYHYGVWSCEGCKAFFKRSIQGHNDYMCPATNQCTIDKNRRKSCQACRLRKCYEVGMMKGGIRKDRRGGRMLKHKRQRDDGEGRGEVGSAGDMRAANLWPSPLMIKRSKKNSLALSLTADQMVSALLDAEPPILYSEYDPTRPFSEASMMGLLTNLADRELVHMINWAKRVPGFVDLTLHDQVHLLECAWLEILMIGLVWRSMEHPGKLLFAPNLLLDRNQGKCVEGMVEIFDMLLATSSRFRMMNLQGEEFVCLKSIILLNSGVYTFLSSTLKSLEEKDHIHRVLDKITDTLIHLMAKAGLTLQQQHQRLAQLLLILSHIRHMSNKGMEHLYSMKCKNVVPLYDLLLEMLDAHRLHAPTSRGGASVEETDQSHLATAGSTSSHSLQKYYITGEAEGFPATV
Test: Estrogen receptor degradation activity: breast cancer cell ERα in cell western assay
Format: cell-based
Settings: MCF7 cells, 4 hours, relative to fulvestrant 0.1 μM positive control
Procedure: Test: Estrogen Receptor Degradation Activity Said test involves measuring the in vitro degradation activity of the compounds of the Table 1a. The measurements of the degradation activities were made using a breast cancer cell ERα in cell western assay as described hereunder. MCF7 cells (ATCC) were seeded in 384 wells microplate (collagen coated) at a concentration of 10000 cells/30 μL per well in red phenol free MEM alpha medium (invitrogen) containing 5% charcoal dextran striped FBS. The following day, 9 points serial 1:5 dilution of each compound was added to the cells in 2.5p L at final concentrations ranging from 0.3-0.0000018 μM (in table 2), or 0.1 μM for fulvestrant (using as positive control). At 4 hours post compound addition the cells were fixed by adding 25 μL of formalin (final concentration 5% formalin containing 0.1% triton) for 10 minutes at room temperature and then washed twice with PBS. Then, 50 μL of LI-COR blocking buffer containing 0.1% Triton was added to plate for 30 minutes at room temperature. LI-COR blocking buffer was removed and cells were incubated overnight at cold room with 50 μL anti-ER rabbit monoclonal antibody (Thermo scientific MA1-39540) diluted at 1:1000 in LI-COR blocking buffer containing 0.1% tween-20. Wells which were treated with blocking buffer but no antibody were used as background control. Wells were washed twice with PBS (0.1% tween-20) and incubated at 37° C. for 60 minutes in LI-COR (0.1% tween-20) containing goat anti-rabbit antibody Alexa 488 (1:1000) and Syto-64 a DNA dye (2 μM final concentration). Cells were then washed 3 times in PBS and scanned in ACUMEN explorer (TTP-Labtech). Integrated intensities in the green fluorescence and red fluorescence were measured to determine the levels of ERα and DNA respectively. The degradation activity with respect to estrogen receptors in this test is given by the concentration which degrades 50% of the estrogen receptor (or IC50) in nM. The % of ERα levels decrease were determined as follows: % inhibition=100*(1−(sample−fulvestrant: DMSO−fulvestrant)).

% Degradation At 0.3 μM [%]	Structure (SMILES)
91	O=C(O)c1ccc2c(c1)CCCC(c1c(Cl)cccc1OC(F)(F)F)=C2c1ccc(CC2CN(CCCF)C2)cc1 [Compound 50, 8-(2-chloro-6-(trifluoromethoxy)phenyl)-9-(4-((1-(3-fluoropropyl)azetidin-3-yl)methyl)phenyl)-6,7-dihydro-5H-benzo[7]annulene-3-carboxylic acid]
93	Cc1ccc(C2=C(c3ccc(CC4CN(CCCF)C4)cc3)c3ccc(C(=O)O)cc3CCC2)cc1C(F)(F)F [Compound 29, 9-(4-((1-(3-fluoropropyl)azetidin-3-yl)methyl)phenyl)-8-(4-methyl-3-(trifluoromethyl)phenyl)-6,7-dihydro-5H-benzo[7]annulene-3-carboxylic acid]
92	CCc1cccc(C2=C(c3ccc(CC4CN(CCCF)C4)cc3)c3ccc(C(=O)O)cc3CCC2)c1C(F)(F)F [Compound 68, 8-(3-ethyl-2-(trifluoromethyl)phenyl)-9-(4-((1-(3-fluoropropyl)azetidin-3-yl)methyl)phenyl)-6,7-dihydro-5H-benzo[7]annulene-3-carboxylic acid]
85	O=C(O)c1ccc2c(c1)CCCC(c1cccc(F)c1OC(F)F)=C2c1ccc(CC2CN(CCCF)C2)cc1 [Compound 1, 8-(2-(difluoromethoxy)-3-fluorophenyl)-9-(4-((1-(3-fluoropropyl)azetidin-3-yl)methyl)phenyl)-6,7-dihydro-5H-benzo[7]annulene-3-carboxylic acid]
78	Cc1ccc(C(F)(F)F)cc1C1=C(c2ccc(CC3CN(CCCF)C3)cc2)c2ccc(C(=O)O)cc2CCC1 [Compound 18, 9-(4-((1-(3-fluoropropyl)azetidin-3-yl)methyl)phenyl)-8-(2-methyl-5-(trifluoromethyl)phenyl)-6,7-dihydro-5H-benzo[7]annulene-3-carboxylic acid]
77	O=C(O)c1ccc2c(c1)CCCC(C1CCC(CO)C1)=C2c1ccc(CC2CN(CCCF)C2)cc1 (stereo not drawn) [Compound 3, 9-(4-((1-(3-fluoropropyl)azetidin-3-yl)methyl)phenyl)-8-(3-(hydroxymethyl)cyclopentyl)-6,7-dihydro-5H-benzo[7]annulene-3-carboxylic acid]
84	Cc1ccc(F)c(C)c1C1=C(c2ccc(CC3CN(CCCF)C3)cc2)c2ccc(C(=O)O)cc2CCC1 [Compound 73, 8-(3-fluoro-2,6-dimethylphenyl)-9-(4-((1-(3-fluoropropyl)azetidin-3-yl)methyl)phenyl)-6,7-dihydro-5H-benzo[7]annulene-3-carboxylic acid]
94	CCc1c(F)cccc1C1=C(c2ccc(CC3CN(CCCF)C3)cc2)c2ccc(C(=O)O)cc2CCC1 [Compound 37, 8-(2-ethyl-3-fluorophenyl)-9-(4-((1-(3-fluoropropyl)azetidin-3-yl)methyl)phenyl)-6,7-dihydro-5H-benzo[7]annulene-3-carboxylic acid]
86	COc1cccc(C2=C(c3ccc(CC4CN(CCCF)C4)cc3)c3ccc(C(=O)O)cc3CCC2)c1C(F)(F)F [Compound 11, 9-(4-((1-(3-fluoropropyl)azetidin-3-yl)methyl)phenyl)-8-(3-methoxy-2-(trifluoromethyl)phenyl)-6,7-dihydro-5H-benzo[7]annulene-3-carboxylic acid]
92	Cl.O=C(O)c1ccc2c(c1)CCCC(c1cccc(OC(F)(F)F)c1)=C2c1ccc(CC2CN(CCCF)C2)cc1 [Compound 22, 9-(4-((1-(3-fluoropropyl)azetidin-3-yl)methyl)phenyl)-8-(3-(trifluoromethoxy)phenyl)-6,7-dihydro-5H-benzo[7]annulene-3-carboxylic acid, hydrochloride]
90	COc1cccc(C(F)(F)F)c1C1=C(c2ccc(CC3CN(CCCF)C3)cc2)c2ccc(C(=O)O)cc2CCC1 [Compound 63, 9-(4-((1-(3-fluoropropyl)azetidin-3-yl)methyl)phenyl)-8-(2-methoxy-6-(trifluoromethyl)phenyl)-6,7-dihydro-5H-benzo[7]annulene-3-carboxylic acid]
95	CC(F)(F)c1cc(F)ccc1C1=C(c2ccc(CC3CN(CCCF)C3)cc2)c2ccc(C(=O)O)cc2CCC1 [Compound 62, 8-(2-(1,1-difluoroethyl)-4-fluorophenyl)-9-(4-((1-(3-fluoropropyl)azetidin-3-yl)methyl)phenyl)-6,7-dihydro-5H-benzo[7]annulene-3-carboxylic acid]
92	COc1c(C)cccc1C1=C(c2ccc(CC3CN(CCCF)C3)cc2)c2ccc(C(=O)O)cc2CCC1.Cl [Compound 49, 9-(4-((1-(3-fluoropropyl)azetidin-3-yl)methyl)phenyl)-8-(2-methoxy-3-methylphenyl)-6,7-dihydro-5H-benzo[7]annulene-3-carboxylic acid, hydrochloride]
93	COc1cc(C2=C(c3ccc(CC4CN(CCCF)C4)cc3)c3ccc(C(=O)O)cc3CCC2)ccc1C(F)(F)F.Cl [Compound 19, 9-(4-((1-(3-fluoropropyl)azetidin-3-yl)methyl)phenyl)-8-(3-methoxy-4-(trifluoromethyl)phenyl)-6,7-dihydro-5H-benzo[7]annulene-3-carboxylic acid, hydrochloride]
92	COc1ccc(C2=C(c3ccc(CC4CN(CCCF)C4)cc3)c3ccc(C(=O)O)cc3CCC2)cc1C(F)(F)F.Cl [Compound 17, 9-(4-((1-(3-fluoropropyl)azetidin-3-yl)methyl)phenyl)-8-(4-methoxy-3-(trifluoromethyl)phenyl)-6,7-dihydro-5H-benzo[7]annulene-3-carboxylic acid, hydrochloride]
90	Cc1ccc(C2=C(c3ccc(CC4CN(CCCF)C4)cc3)c3ccc(C(=O)O)cc3CCC2)c(C)c1Cl [Compound 58, 8-(3-chloro-2,4-dimethylphenyl)-9-(4-((1-(3-fluoropropyl)azetidin-3-yl)methyl)phenyl)-6,7-dihydro-5H-benzo[7]annulene-3-carboxylic acid]
100	O=C(O)c1ccc2c(c1)CCCC(c1ccc(F)c(O)c1F)=C2c1ccc(CC2CN(CCCF)C2)cc1 [Compound 47, 8-(2,4-difluoro-3-hydroxyphenyl)-9-(4-((1-(3-fluoropropyl)azetidin-3-yl)methyl)phenyl)-6,7-dihydro-5H-benzo[7]annulene-3-carboxylic acid]
91	COc1ccc(C(F)(F)F)c(C2=C(c3ccc(CC4CN(CCCF)C4)cc3)c3ccc(C(=O)O)cc3CCC2)c1 [Compound 35, 9-(4-((1-(3-fluoropropyl)azetidin-3-yl)methyl)phenyl)-8-(5-methoxy-2-(trifluoromethyl)phenyl)-6,7-dihydro-5H-benzo[7]annulene-3-carboxylic acid]
93	Cc1cc(C2=C(c3ccc(CC4CN(CCCF)C4)cc3)c3ccc(C(=O)O)cc3CCC2)ccc1C(F)(F)F [Compound 26, 9-(4-((1-(3-fluoropropyl)azetidin-3-yl)methyl)phenyl)-8-(3-methyl-4-(trifluoromethyl)phenyl)-6,7-dihydro-5H-benzo[7]annulene-3-carboxylic acid]
95	O=C(O)c1ccc2c(c1)CCCC(c1cccc(C(F)(F)F)c1C(F)(F)F)=C2c1ccc(CC2CN(CCCF)C2)cc1 [Compound 59, 8-(2,3-bis(trifluoromethyl)phenyl)-9-(4-((1-(3-fluoropropyl)azetidin-3-yl)methyl)phenyl)-6,7-dihydro-5H-benzo[7]annulene-3-carboxylic acid]
91	CCc1cc(C(F)(F)F)ccc1C1=C(c2ccc(CC3CN(CCCF)C3)cc2)c2ccc(C(=O)O)cc2CCC1 [Compound 69, 8-(2-ethyl-4-(trifluoromethyl)phenyl)-9-(4-((1-(3-fluoropropyl)azetidin-3-yl)methyl)phenyl)-6,7-dihydro-5H-benzo[7]annulene-3-carboxylic acid]
